Test results: ChEMBL document CHEMBL3797052 (Eur J Med Chem, 2016)

How the values were obtained:
[1] = Antiproliferative activity against human BT549 cells assessed as cell growth at 10^-8 M after 48 hrs by sulforhodamine B assay; format: functional; settings: BT-549, 48 h, read-out: Activity
[2] = Antiproliferative activity against human SF539 cells assessed as cell growth at 10^-7 M after 48 hrs by sulforhodamine B assay; format: functional; settings: SF-539, 48 h, read-out: Activity
MDA-MB-468 [3] = assay: Antiproliferative activity against human MDA-MB-468 cells assessed as cell growth at 10^-6 M after 48 hrs by sulforhodamine B assay; format: functional; settings: MDA-MB-468, 48 h, read-out: Activity
786-0 [4] = assay: Antiproliferative activity against human 786-0 cells assessed as cell growth at 10^-7 M after 48 hrs by sulforhodamine B assay; format: functional; settings: 786-0, 48 h, read-out: Activity
[5] = Antiproliferative activity against human DU145 cells assessed as cell growth at 10^-7 M after 48 hrs by sulforhodamine B assay; format: functional; settings: DU-145, 48 h, read-out: Activity
MCF7 [6] = assay: Antiproliferative activity against human MCF7 cells assessed as cell growth at 10^-7 M after 48 hrs by sulforhodamine B assay; format: functional; settings: MCF7, 48 h, read-out: Activity
MDA-MB-231 = assay: Antiproliferative activity against human MDA-MB-231 cells assessed as cell growth at 10^-7 M after 48 hrs by sulforhodamine B assay; format: functional; settings: MDA-MB-231, 48 h, read-out: Activity
KM12 = assay: Antiproliferative activity against human KM12 cells assessed as growth inhibition after 48 hrs by sulforhodamine B assay; format: functional; settings: KM12, 48 h
NCI-H460 = assay: Antiproliferative activity against human NCI-H460 cells assessed as growth inhibition after 48 hrs by sulforhodamine B assay; format: functional; settings: NCI-H460, 48 h
[7] = Antiproliferative activity against human BT549 cells assessed as growth inhibition after 48 hrs by sulforhodamine B assay; format: functional; settings: BT-549, 48 h
T47D = assay: Antiproliferative activity against human T47D cells assessed as growth inhibition after 48 hrs by sulforhodamine B assay; format: functional
hERG (KCNH2) = hERG (KCNH2) (Homo sapiens, UniProt Q12809); assay: Inhibition of human ERG assessed as reduction in channel current at 100 uM by automated patch-clamp electrophysiology assay
SR = assay: Antiproliferative activity against human SR cells assessed as cell growth at 10^-8 M after 48 hrs by sulforhodamine B assay; format: functional; settings: read-out: Activity
MDA-MB-468 [8] = assay: Antiproliferative activity against human MDA-MB-468 cells assessed as cell growth at 10^-7 M after 48 hrs by sulforhodamine B assay; format: functional; settings: MDA-MB-468, 48 h, read-out: Activity
[9] = Antiproliferative activity against human MOLT4 cells assessed as cell growth at 10^-6 M after 48 hrs by sulforhodamine B assay; format: functional; settings: MOLT-4, 48 h, read-out: Activity
NCI-H226 = assay: Antiproliferative activity against human NCI-H226 cells assessed as cell growth at 10^-6 M after 48 hrs by sulforhodamine B assay; format: functional; settings: NCI-H226, 48 h, read-out: Activity
NCI-H322M = assay: Antiproliferative activity against human NCI-H322M cells assessed as cell growth at 10^-6 M after 48 hrs by sulforhodamine B assay; format: functional; settings: read-out: Activity
NCI-H522 [10] = assay: Antiproliferative activity against human NCI-H522 cells assessed as cell growth at 10^-6 M after 48 hrs by sulforhodamine B assay; format: functional; settings: NCI-H522, 48 h, read-out: Activity
[11] = Antiproliferative activity against human SF268 cells assessed as cell growth at 10^-6 M after 48 hrs by sulforhodamine B assay; format: functional; settings: SF-268, 48 h, read-out: Activity
CCRF-CEM = assay: Antiproliferative activity against human CCRF-CEM cells assessed as cell growth at 10^-4 M after 48 hrs by sulforhodamine B assay; format: functional; settings: read-out: Activity
NCI-H522 [12] = assay: Antiproliferative activity against human NCI-H522 cells assessed as cell growth at 10^-4 M after 48 hrs by sulforhodamine B assay; format: functional; settings: NCI-H522, 48 h, read-out: Activity
[13] = Antiproliferative activity against human LOXIMVI cells assessed as cell growth at 10^-4 M after 48 hrs by sulforhodamine B assay; format: functional; settings: LOX IMVI, read-out: Activity
SK-MEL-5 = assay: Antiproliferative activity against human SK-MEL-5 cells assessed as cell growth at 10^-8 M after 48 hrs by sulforhodamine B assay; format: functional; settings: SK-MEL-5, 48 h, read-out: Activity
[14] = Antiproliferative activity against human UACC62 cells assessed as cell growth at 10^-8 M after 48 hrs by sulforhodamine B assay; format: functional; settings: UACC-62, 48 h, read-out: Activity
786-0 [15] = assay: Antiproliferative activity against human 786-0 cells assessed as cell growth at 10^-8 M after 48 hrs by sulforhodamine B assay; format: functional; settings: 786-0, 48 h, read-out: Activity
[16] = Antiproliferative activity against human RXF393 cells assessed as cell growth at 10^-8 M after 48 hrs by sulforhodamine B assay; format: functional; settings: RXF 393, 48 h, read-out: Activity
[17] = Antiproliferative activity against human UACC62 cells assessed as cell growth at 10^-6 M after 48 hrs by sulforhodamine B assay; format: functional; settings: UACC-62, 48 h, read-out: Activity
[18] = Antiproliferative activity against human IGROV1 cells assessed as cell growth at 10^-6 M after 48 hrs by sulforhodamine B assay; format: functional; settings: IGROV-1, 48 h, read-out: Activity
[19] = Antiproliferative activity against human SKOV3 cells assessed as cell growth at 10^-6 M after 48 hrs by sulforhodamine B assay; format: functional; settings: SK-OV-3, 48 h, read-out: Activity
A498 = assay: Antiproliferative activity against human A498 cells assessed as cell growth at 10^-6 M after 48 hrs by sulforhodamine B assay; format: functional; settings: A498, 48 h, read-out: Activity
[20] = Antiproliferative activity against human RXF393 cells assessed as cell growth at 10^-6 M after 48 hrs by sulforhodamine B assay; format: functional; settings: RXF 393, 48 h, read-out: Activity
[21] = Antiproliferative activity against human SKOV3 cells assessed as cell growth at 10^-4 M after 48 hrs by sulforhodamine B assay; format: functional; settings: SK-OV-3, 48 h, read-out: Activity
[22] = Antiproliferative activity against human Caki1 cells assessed as cell growth at 10^-4 M after 48 hrs by sulforhodamine B assay; format: functional; settings: CAKI-1, 48 h, read-out: Activity
[23] = Antiproliferative activity against human TK10 cells assessed as cell growth at 10^-4 M after 48 hrs by sulforhodamine B assay; format: functional; settings: TK-10, 48 h, read-out: Activity
MCF7 [24] = assay: Antiproliferative activity against human MCF7 cells assessed as cell growth at 10^-4 M after 48 hrs by sulforhodamine B assay; format: functional; settings: MCF7, 48 h, read-out: Activity
[25] = Antiproliferative activity against human Hs 578T cells assessed as cell growth at 10^-4 M after 48 hrs by sulforhodamine B assay; format: functional; settings: read-out: Activity
[26] = read-out: LC50 (the source's name)

Sequence of hERG (KCNH2) (Q12809 whole entry): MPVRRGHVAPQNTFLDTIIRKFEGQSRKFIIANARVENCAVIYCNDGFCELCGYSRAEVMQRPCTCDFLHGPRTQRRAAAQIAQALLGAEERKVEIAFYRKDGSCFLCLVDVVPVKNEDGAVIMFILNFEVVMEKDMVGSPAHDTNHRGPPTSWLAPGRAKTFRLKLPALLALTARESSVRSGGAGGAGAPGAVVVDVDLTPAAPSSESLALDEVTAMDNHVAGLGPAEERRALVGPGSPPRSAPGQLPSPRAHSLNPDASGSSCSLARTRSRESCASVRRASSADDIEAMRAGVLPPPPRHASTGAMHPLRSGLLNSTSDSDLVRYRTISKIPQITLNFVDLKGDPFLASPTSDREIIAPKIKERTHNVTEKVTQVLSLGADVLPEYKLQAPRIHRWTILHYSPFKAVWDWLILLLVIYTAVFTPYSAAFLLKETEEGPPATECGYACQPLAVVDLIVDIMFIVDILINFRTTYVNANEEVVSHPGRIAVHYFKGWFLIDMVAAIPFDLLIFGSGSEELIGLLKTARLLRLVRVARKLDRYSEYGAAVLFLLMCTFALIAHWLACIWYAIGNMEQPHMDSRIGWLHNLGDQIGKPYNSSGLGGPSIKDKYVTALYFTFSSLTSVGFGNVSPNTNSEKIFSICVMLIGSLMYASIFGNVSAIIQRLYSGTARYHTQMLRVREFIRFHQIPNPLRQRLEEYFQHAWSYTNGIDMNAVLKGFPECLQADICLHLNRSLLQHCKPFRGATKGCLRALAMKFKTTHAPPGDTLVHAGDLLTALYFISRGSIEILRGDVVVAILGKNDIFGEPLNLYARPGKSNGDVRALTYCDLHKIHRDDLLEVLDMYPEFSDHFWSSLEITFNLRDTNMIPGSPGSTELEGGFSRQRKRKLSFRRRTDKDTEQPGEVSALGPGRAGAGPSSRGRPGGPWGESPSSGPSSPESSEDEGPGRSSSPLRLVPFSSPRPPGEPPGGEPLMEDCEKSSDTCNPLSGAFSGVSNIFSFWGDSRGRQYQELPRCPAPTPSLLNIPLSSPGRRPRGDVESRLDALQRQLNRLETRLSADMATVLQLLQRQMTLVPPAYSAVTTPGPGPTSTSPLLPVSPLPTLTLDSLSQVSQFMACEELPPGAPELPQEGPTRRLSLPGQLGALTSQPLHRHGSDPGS

Work on `CNC(=O)c1cc(Oc2ccc3nc(NC(=O)Nc4ccc(Cl)c(Cl)c4)sc3c2)ccn1` yielded a growth at 0.01 µM [1] of 94%, a growth at 0.1 µM [2] of 100% and a growth at 1 µM (MDA-MB-468 [3]) of 86%. For the same molecule, the growth at 0.1 µM (786-0 [4]) was 100%, the growth at 0.1 µM [5] was 101% and the growth at 0.1 µM (MCF7 [6]) was 89%. The growth at 0.1 µM (MDA-MB-231) was 97%, the GI50 (KM12) was 3 µM and the LC50 (KM12) was greater than 100 µM. For the same molecule, the TGI (KM12) was greater than 100 µM, the GI50 (NCI-H460) was 2.43 µM and the LC50 (concentration killing 50% of cells) (NCI-H460) was greater than 100 µM. The TGI (NCI-H460) was 5.32 µM, the GI50 [7] was 4.88 µM and the TGI [7] was greater than 100 µM. The CC50 [7, 26] was greater than 100 µM, the GI50 (T47D) was 2.65 µM and the TGI (T47D) was 6.36 µM. It also gave a CC50 (T47D; [26]) greater than 100 µM, an inhibition at 100 µM (hERG (KCNH2)) of 47.9% and a growth at 0.01 µM (SR) of 108%. The growth at 0.1 µM (MDA-MB-468 [8]) was 91%, the growth at 1 µM [9] was 99% and the growth at 1 µM (NCI-H226) was 109%. For the same molecule, the growth at 1 µM (NCI-H322M) was 84%, the growth at 1 µM (NCI-H522 [10]) was 97% and the growth at 1 µM [11] was 95%. The growth at 100 µM (CCRF-CEM) was 79%, the growth at 100 µM (NCI-H522 [12]) was 23% and the growth at 100 µM [13] was -62%. For the same molecule, the growth at 0.01 µM (SK-MEL-5) was 99%, the growth at 0.01 µM [14] was 98% and the growth at 0.01 µM (786-0 [15]) was 95%. It also gave a growth at 0.01 µM [16] of 99%, a growth at 1 µM [17] of 85% and a growth at 1 µM [18] of 98%. It also gave a growth at 1 µM [19] of 117%, a growth at 1 µM (A498) of 115% and a growth at 1 µM [20] of 94%. For the same molecule, the growth at 100 µM [21] was -69%, the growth at 100 µM [22] was -17% and the growth at 100 µM [23] was -14%. It also gave a growth at 100 µM (MCF7 [24]) of 7% and a growth at 100 µM [25] of -22%.
